Source: patent US7238701B2, “Substituted tetrahydrobenzothienopyrimidinamine compounds useful for treating hyper-proliferative disorders” (Bayer Pharmaceuticals Corporation, priority 2003, dated 2007)

What was measured:
[1] = system: A431cells (human epidermoid carcinoma); assay: In vitro tumor cell proliferation assay (Cell Titer-Glo luminescent cell viability), A431 cells; type: cell-based; conditions: A-431, 72 h, 72 hours drug exposure, 10% Fetal Bovine Serum, ATP luminescence readout, read-out: IC50 (50% inhibition of cell proliferation)
Outline: (§1)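 ATP luminescence (CellTiter-Glo) measured proliferation after 72 h compound exposure at 37 °C, giving IC50 values. Serial dilutions spanning 64 pM–100 μM in 0.1% DMSO were applied one day after plating 2.5×10^3 cells/well in RPMI plus 10% fetal bovine serum.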

[2] = system: BT474 (human breast carcinoma); assay: In vitro tumor cell proliferation assay (Cell Titer-Glo luminescent cell viability), BT474 cells; type: cell-based; conditions: BT-474, 72 hours drug exposure, 10% Fetal Bovine Serum, ATP luminescence readout, read-out: IC50 (50% inhibition of cell proliferation)
Outline: as §1

| SMILES | IC50 [1] [µM] | IC50 [2] [µM] |
| --- | --- | --- |
| CNCCC1CCc2c(sc3ncnc(Nc4ccc(OCc5ccccn5)c(Cl)c4)c23)C1 (centres unmarked) [Example 187, N-[3-chloro-4-(pyridin-2-ylmethoxy)phenyl]-7-[2-(methylamino)ethyl]-5,6,7,8-tetrahydro[1]benzothieno[2,3-d]pyrimidin-4-amine] | < 50 | < 5 |
| COCCN1CCN(CCC2CCc3c(sc4ncnc(Nc5ccc(OCc6ccccn6)c(Cl)c5)c34)C2)CC1 (centres unmarked) [Example 188, N-[3-chloro-4-(pyridin-2-ylmethoxy)phenyl]-7-{2-[4-(2-methoxyethyl)piperazin-1-yl]ethyl}-5,6,7,8-tetrahydro[1]benzothieno[2,3-d]pyrimidin-4-amine] | < 50 | < 5 |
| COCCN(C)CCC1CCc2c(sc3ncnc(Nc4ccc(OCc5ccccn5)c(Cl)c4)c23)C1 (centres unmarked) [Example 189, N-[3-chloro-4-(pyridin-2-ylmethoxy)phenyl]-7-{2-[(2-methoxyethyl)(methyl)amino]ethyl}-5,6,7,8-tetrahydro[1]benzothieno[2,3-d]pyrimidin-4-amine] | < 5 | < 5 |
| Clc1cc(Nc2ncnc3sc4c(c23)CCC(CCN2CCCC2)C4)ccc1OCc1ccccn1 (centres unmarked) [Example 190, N-[3-chloro-4-(pyridin-2-ylmethoxy)phenyl]-7-(2-pyrrolidin-1-ylethyl)-5,6,7,8-tetrahydro[1]benzothieno[2,3-d]pyrimidin-4-amine] | < 5 | < 5 |
| Clc1cc(Nc2ncnc3sc4c(c23)CCC(CCN2CCCCC2)C4)ccc1OCc1ccccn1 (centres unmarked) [Example 191, N-[3-chloro-4-(pyridin-2-ylmethoxy)phenyl]-7-(2-piperidin-1-ylethyl)-5,6,7,8-tetrahydro[1]benzothieno[2,3-d]pyrimidin-4-amine] | < 5 | < 5 |
| Clc1cc(Nc2ncnc3sc4c(c23)CCC(CCNCCN2CCOCC2)C4)ccc1OCc1ccccn1 (centres unmarked) [Example 192, N-[3-chloro-4-(pyridin-2-ylmethoxy)phenyl]-7-{2-[(2-morpholin-4-ylethyl)amino]ethyl}-5,6,7,8-tetrahydro[1]benzothieno[2,3-d]pyrimidin-4-amine] | < 5 | < 5 |
| CCNCCC1CCc2c(sc3ncnc(Nc4ccc(OCc5ccccn5)c(Cl)c4)c23)C1 (centres unmarked) [Example 193, N-[3-chloro-4-(pyridin-2-ylmethoxy)phenyl]-7-[2-(ethylamino)ethyl]-5,6,7,8-tetrahydro[1]benzothieno[2,3-d]pyrimidin-4-amine] | < 5 | < 5 |
| CCN(CC)CCC1CCc2c(sc3ncnc(Nc4ccc(OCc5ccccn5)c(Cl)c4)c23)C1 (centres unmarked) [Example 194, N-[3-chloro-4-(pyridin-2-ylmethoxy)phenyl]-7-[2-(diethylamino)ethyl]-5,6,7,8-tetrahydro[1]benzothieno[2,3-d]pyrimidin-4-amine] | < 5 | < 5 |
| COCCCNCCC1CCc2c(sc3ncnc(Nc4ccc(OCc5ccccn5)c(Cl)c4)c23)C1 (centres unmarked) [Example 195, N-[3-chloro-4-(pyridin-2-ylmethoxy)phenyl]-7-{2-[(3-methoxypropyl)amino]ethyl}-5,6,7,8-tetrahydro[1]benzothieno[2,3-d]pyrimidin-4-amine] | < 5 | < 5 |
| Clc1cc(Nc2ncnc3sc4c(c23)CCC(CCN2CCN(Cc3ccncc3)CC2)C4)ccc1OCc1ccccn1 (centres unmarked) [Example 196, N-[3-chloro-4-(pyridin-2-ylmethoxy)phenyl]-7-{2-[4-(pyridin-4-ylmethyl)piperazin-1-yl]ethyl}-5,6,7,8-tetrahydro[1]benzothieno[2,3-d]pyrimidin-4-amine] | < 5 | < 5 |
| O[C@@H]1CCN(CCC2CCc3c(sc4ncnc(Nc5ccc(OCc6cccc(F)c6)c(Cl)c5)c34)C2)C1 (stereo partly drawn) [Example 197, (3R)-1-{2-[4-({3-chloro-4-[(3-fluorobenzyl)oxy]phenyl}amino)-5,6,7,8-tetrahydro[1]benzothieno[2,3-d]pyrimidin-7-yl]ethyl}pyrrolidin-3-ol] | < 5 | < 5 |
| COC[C@H]1CCCN1CCC1CCc2c(sc3ncnc(Nc4ccc(OCc5cccc(F)c5)c(Cl)c4)c23)C1 (stereo partly drawn) [Example 198, N-{3-chloro-4-[(3-fluorobenzyl)oxy]phenyl}-7-{2-[(2R)-2-(methoxymethyl)pyrrolidin-1-yl]ethyl}-5,6,7,8-tetrahydro[1]benzothieno[2,3-d]pyrimidin-4-amine] | < 5 | < 5 |
| Fc1cccc(COc2ccc(Nc3ncnc4sc5c(c34)CCC(CCN3CCSCC3)C5)cc2Cl)c1 (centres unmarked) [Example 199, N-{3-chloro-4-[(3-fluorobenzyl)oxy]phenyl}-7-(2-thiomorpholin-4-ylethyl)-5,6,7,8-tetrahydro[1]benzothieno[2,3-d]pyrimidin-4-amine] | < 50 | < 5 |
| CS(=O)(=O)CCNCCC1CCc2c(sc3ncnc(Nc4ccc(OCc5cccc(F)c5)c(Cl)c4)c23)C1 (centres unmarked) [Example 200, N-{3-chloro-4-[(3-fluorobenzyl)oxy]phenyl}-7-(2-{[2-(methylsulfonyl)ethyl]amino}ethyl)-5,6,7,8-tetrahydro[1]benzothieno[2,3-d]pyrimidin-4-amine] | < 5 | < 5 |
| C=CC1(O)CCc2c(sc3ncnc(Nc4ccc(F)c(Cl)c4)c23)C1 (centres unmarked) [Example 201, 4-[(3-chloro-4-fluorophenyl)amino]-7-vinyl-5,6,7,8-tetrahydro[1]benzothieno[2,3-d]pyrimidin-7-ol] | < 50 | < 50 |
| CS(=O)(=O)OCCC1CCc2c(sc3ncnc(Nc4ccc5c(cnn5Cc5ccccc5)c4)c23)C1 (centres unmarked) [Example 202, 2-{4-[(1-benzyl-1H-indazol-5-yl)amino]-5,6,7,8-tetrahydro[1]benzothieno[2,3-d]pyrimidin-7-yl}ethyl methanesulfonate] | < 5 | < 5 |
| OCCC1CCc2c(sc3ncnc(Nc4ccc5c(cnn5Cc5ccccc5)c4)c23)C1 (centres unmarked) [Example 203, 2-[4-(1-Benzyl-1H-indazol-5-ylamino)-5,6,7,8-tetrahydro-benzo[4,5]thieno[2,3-d]pyrimidin-7-yl]-ethanol] | < 5 | < 5 |
| CCOC(=O)CC1CCc2c(sc3ncnc(Nc4ccc5c(cnn5Cc5ccccc5)c4)c23)C1 (centres unmarked) [Example 204, ethyl {4-[(1-benzyl-1H-indazol-5-yl)amino]-5,6,7,8-tetrahydro[1]benzothieno[2,3-d]pyrimidin-7-yl}acetate] | < 50 | < 5 |
| COCCNCCC1CCc2c(sc3ncnc(Nc4ccc5c(cnn5Cc5ccccc5)c4)c23)C1 (centres unmarked) [Example 205, N-(1-benzyl-1H-indazol-5-yl)-7-{2-[(2-methoxyethyl)amino]ethyl}-5,6,7,8-tetrahydro[1]benzothieno[2,3-d]pyrimidin-4-amine] | < 5 | < 5 |
| OCCNCCC1CCc2c(sc3ncnc(Nc4ccc5c(cnn5Cc5ccccc5)c4)c23)C1 (centres unmarked) [Example 206, 2-[(2-{4-[(1-benzyl-1H-indazol-5-yl)amino]-5,6,7,8-tetrahydro[1]benzothieno[2,3-d]pyrimidin-7-yl}ethyl)amino]ethanol] | < 5 | < 5 |
| CN(C)C1CCN(CCC2CCc3c(sc4ncnc(Nc5ccc6c(cnn6Cc6ccccc6)c5)c34)C2)C1 (centres unmarked) [Example 207, N-(1-benzyl-1H-indazol-5-yl)-7-{2-[3-(dimethylamino)pyrrolidin-1-yl]ethyl}-5,6,7,8-tetrahydro[1]benzothieno[2,3-d]pyrimidin-4-amine] | < 5 | < 5 |
| c1ccc(Cn2ncc3cc(Nc4ncnc5sc6c(c45)CCC(CCN4CCCC4)C6)ccc32)cc1 (centres unmarked) [Example 208, N-(1-benzyl-1H-indazol-5-yl)-7-(2-pyrrolidin-1-ylethyl)-5,6,7,8-tetrahydro[1]benzothieno[2,3-d]pyrimidin-4-amine] | < 5 | < 5 |
| c1ccc(Cn2ncc3cc(Nc4ncnc5sc6c(c45)CCC(CCNCCN4CCOCC4)C6)ccc32)cc1 (centres unmarked) [Example 209, N-(1-benzyl-1H-indazol-5-yl)-7-{2-[(2-morpholin-4-ylethyl)amino]ethyl}-5,6,7,8-tetrahydro[1]benzothieno[2,3-d]pyrimidin-4-amine] | < 5 | < 5 |
| CS(=O)(=O)CCNCCC1CCc2c(sc3ncnc(Nc4ccc5c(cnn5Cc5ccccc5)c4)c23)C1 (centres unmarked) [Example 210, N-(1-benzyl-1H-indazol-5-yl)-7-(2-{[2-(methylsulfonyl)ethyl]amino}ethyl)-5,6,7,8-tetrahydro[1]benzothieno[2,3-d]pyrimidin-4-amine] | < 5 | < 5 |
| c1ccc(Cn2ncc3cc(Nc4ncnc5sc6c(c45)CCC(CCNCCN4CCCC4)C6)ccc32)cc1 (centres unmarked) [Example 211, N-(1-benzyl-1H-indazol-5-yl)-7-{2-[(2-pyrrolidin-1-ylethyl)amino]ethyl}-5,6,7,8-tetrahydro[1]benzothieno[2,3-d]pyrimidin-4-amine] | < 5 | < 5 |
| CN(C)CCCCNCCC1CCc2c(sc3ncnc(Nc4ccc5c(cnn5Cc5ccccc5)c4)c23)C1 (centres unmarked) [Example 212, N′-(2-{4-[(1-benzyl-1H-indazol-5-yl)amino]-5,6,7,8-tetrahydro[1]benzothieno[2,3-d]pyrimidin-7-yl}ethyl)-N,N-dimethylbutane-1,4-diamine] | < 5 | < 5 |
| CCOC(=O)CC1CCc2c(sc3ncnc(Nc4ccc(Oc5ccc(C)nc5)c(C)c4)c23)C1 (centres unmarked) [Example 213, ethyl [4-({3-methyl-4-[(6-methylpyridin-3-yl)oxy]phenyl}amino)-5,6,7,8-tetrahydro[1]benzothieno[2,3-d]pyrimidin-7-yl]acetate] | < 50 | < 50 |
| Cc1ccc(Oc2ccc(Nc3ncnc4sc5c(c34)CCC(CCO)C5)cc2C)cn1 (centres unmarked) [Example 214, 2-{4-[3-Methyl-4-(6-methyl-pyridin-3-yloxy)-phenylamino]-5,6,7,8-tetrahydro-benzo[4,5]thieno[2,3-d]pyrimidin-7-yl}-ethanol] | < 50 | < 5 |
